Experimental data from ChEMBL document CHEMBL1125044, “1,2,4-Diazaphosphole nucleosides. Synthesis, structure, and antitumor activity of nucleosides with a lambda 3 phosphorus atom” (J Med Chem, 1990).
Active and inactive are the calls of the source. The rule behind the calls is not given here.

How the values were obtained:
Mus musculus [1] = assay: Compound was tested against L1210 infected BDF1 mice at 480 mg/kg expressed as percent increase in life span; type: functional
Mus musculus [2] = species: Mus musculus; assay: Compound was tested against L1210 infected BDF1 mice expressed as weight change at 24 hour; type: functional
Mus musculus [3] = species: Mus musculus; assay: Compound was tested against L1210 infected BDF1 mice expressed as weight change at 72 hour; type: functional
[4] = Lethal dose in L1210-bearing female BDF1 mice; type: toxicity, organism-based; settings: BDF1, mouse, in vivo
[5] = In vitro antiviral activity against number of DNA virus was reported; Inactive; type: functional
[6] = In vitro antiviral activity against number of RNA virus was reported; Inactive; type: functional

Work on `NC(=S)c1nn(C2O[C@H](CO)[C@@H](O)[C@H]2O)cp1` (stereo partly specified) yielded an ILS at 480 mg/kg (Mus musculus [1]) of 25%, a Weight change (Mus musculus [2]) of -1.67 g and a Weight change (Mus musculus [3]) of -0.67 g.

With `NC(=O)c1nn(C2O[C@H](CO)[C@@H](O)[C@H]2O)cp1` (stereo partly specified) the LD50 [4] was 480 mg/kg, the Activity [5] was “inactive” and the Activity [6] was “inactive”.
